Source: ChEMBL document CHEMBL5154823, “Amphiphilic cyclic peptide [W4KR5]-Antibiotics combinations as broad-spectrum antimicrobial agents” (Eur J Med Chem, 2022)
Calls of active or inactive are those of the source. No cut-off for these calls is given here. Where a SMILES comes first, the peptide text is derived from it.

Experiments:
Pseudomonas aeruginosa [1] = assay: Antibacterial activity against Pseudomonas aeruginosa ATCC 27883 assessed as tetracycline MIC incubated for 24 hrs by microbroth dilution assay; assay type: functional
Klebsiella pneumoniae [2] = assay: Antibacterial activity against Klebsiella pneumoniae ATCC BAA 1705 assessed as polymyxin B MIC incubated for 24 hrs by microbroth dilution assay; assay type: functional
Escherichia coli [3] = assay: Antibacterial activity against Escherichia coli ATCC 25922 assessed as tetracycline MIC incubated for 24 hrs by microbroth dilution assay; assay type: functional
Staphylococcus aureus [4] = assay: Bactericidal activity against methicillin resistant Staphylococcus aureus ATCC BAA 1556 assessed as reduction in bacterial viability at MIC measured after 2 hrs by Time kill assay; assay type: functional, organism-based
Klebsiella pneumoniae [5] = assay: Antibacterial activity against imipenem resistant Klebsiella pneumoniae ATCC BAA 1705 assessed as reduction in microbial growth incubated for 24 hrs by microbroth dilution method; assay type: functional
Escherichia coli [6] = assay: Bactericidal activity against Escherichia coli ATCC BAA 2452 assessed as reduction in bacterial growth at MIC measured after 8 hrs by Time kill assay; assay type: functional, organism-based
Pseudomonas aeruginosa [7] = assay: Synergistic antibacterial activity against carbapenem resistant Pseudomonas aeruginosa ATCC BAA 1744 assessed as fractional inhibitory concentration index incubated for 24 hrs in presence of meropenem by checkerboard assay; assay type: functional
Cell membrane = assay: Induction of membrane disruption in Staphylococcus aureus ATCC BAA -1556 assessed as increase in PI positive cells at 4 times of MIC incubated for 2 hrs by Propidium iodide staining based FACS cytometry analysis relative to control; assay type: subcellular
Klebsiella pneumoniae [8] = assay: Synergistic antibacterial activity against Klebsiella pneumoniae ATCC BAA 1705 assessed as fractional inhibitory concentration index incubated for 24 hrs in presence of tetracycline by checkerboard assay; assay type: functional
Klebsiella pneumoniae [9] = assay: Bactericidal activity against Klebsiella pneumoniae ATCC BAA 1705 assessed as reduction in colony formation at MIC measured after 24 hrs by Time kill assay; assay type: functional, organism-based
HepaRG = assay: Cytotoxicity against human HepaRG cells assessed as assessed as reduction in cell viability at 10 ug/ml incubated for 24 hrs by microplate reader analysis; assay type: toxicity, cell-based; settings: dose 10 µg/ml
Escherichia coli [10] = assay: Synergistic antibacterial activity against Escherichia coli ATCC 25922 assessed as fractional inhibitory concentration index incubated for 24 hrs in presence of vancomycin by checkerboard assay; assay type: functional
Escherichia coli [11] = assay: Synergistic antibacterial activity against Escherichia coli ATCC 25922 assessed as fractional inhibitory concentration index incubated for 24 hrs in presence of ciprofloxacin by checkerboard assay; assay type: functional
Escherichia coli [12] = assay: Bactericidal activity against Escherichia coli ATCC BAA 2452 assessed as reduction in colony formation at MIC measured after 12 hrs by Time kill assay; assay type: functional, organism-based
[13] = Hemolytic activity in human Red blood cell incubated for 2 hrs by spectrophotometric analysis; assay type: toxicity, cell-based, Erythrocyte; settings: red blood cells (erythrocytes)
Staphylococcus aureus [14] = assay: Synergistic antibacterial activity against Staphylococcus aureus ATCC 29213 assessed as fractional inhibitory concentration index incubated for 24 hrs in presence of meropenem by checkerboard assay; assay type: functional
Klebsiella pneumoniae [15] = assay: Synergistic antibacterial activity against Klebsiella pneumoniae ATCC BAA 1705 assessed as fractional inhibitory concentration index incubated for 24 hrs in presence of vancomycin by checkerboard assay; assay type: functional
Klebsiella pneumoniae [16] = assay: Synergistic antibacterial activity against Klebsiella pneumoniae ATCC BAA 1705 assessed as fractional inhibitory concentration index incubated for 24 hrs in presence of kanamycin by checkerboard assay; assay type: functional
Escherichia coli [17] = assay: Antibacterial activity against Escherichia coli ATCC 25922 assessed as ciprofloxacin MIC incubated for 24 hrs by microbroth dilution assay; assay type: functional
Pseudomonas aeruginosa [18] = assay: Antibacterial activity against Pseudomonas aeruginosa ATCC 27883 assessed as polymyxin B MIC incubated for 24 hrs by microbroth dilution assay; assay type: functional
Staphylococcus aureus [19] = assay: Synergistic antibacterial activity against methicillin resistant Staphylococcus aureus ATCC BAA -1556 assessed as fractional inhibitory concentration index incubated for 24 hrs in presence of tetracycline by checkerboard assay; assay type: functional
Klebsiella pneumoniae [20] = assay: Synergistic antibacterial activity against Klebsiella pneumoniae ATCC BAA 1705 assessed as fractional inhibitory concentration index incubated for 24 hrs in presence of clindamycin by checkerboard assay; assay type: functional
Pseudomonas aeruginosa [21] = assay: Antibacterial activity against Pseudomonas aeruginosa ATCC 27883 assessed as ciprofloxacin MIC incubated for 24 hrs by microbroth dilution assay; assay type: functional
Pseudomonas aeruginosa [22] = assay: Synergistic antibacterial activity against Pseudomonas aeruginosa ATCC 27883 assessed as fractional inhibitory concentration index incubated for 24 hrs in presence of vancomycin by checkerboard assay; assay type: functional
Klebsiella pneumoniae [23] = assay: Synergistic antibacterial activity against Klebsiella pneumoniae ATCC 13883 assessed as fractional inhibitory concentration index incubated for 24 hrs in presence of meropenem by checkerboard assay; assay type: functional
Escherichia coli [24] = assay: Antibacterial activity against Escherichia coli ATCC 25922 assessed as vancomycin MIC incubated for 24 hrs by microbroth dilution assay; assay type: functional
Staphylococcus aureus [25] = assay: Synergistic antibacterial activity against methicillin resistant Staphylococcus aureus ATCC BAA -1556 assessed as fractional inhibitory concentration index incubated for 24 hrs in presence of clindamycin by checkerboard assay; assay type: functional
Escherichia coli [26] = assay: Synergistic antibacterial activity against Escherichia coli ATCC 25922 assessed as fractional inhibitory concentration index incubated for 24 hrs in presence of levofloxacin by checkerboard assay; assay type: functional
Escherichia coli [27] = assay: Synergistic antibacterial activity against carbapenem and NDM-1 positive resistant Escherichia coli ATCC BAA 2452 assessed as fractional inhibitory concentration index incubated for 24 hrs in presence of meropenem by checkerboard assay; assay type: functional
Escherichia coli [28] = assay: Antibacterial activity against Escherichia coli ATCC 25922 assessed as levofloxacin MIC incubated for 24 hrs by microbroth dilution assay; assay type: functional
Klebsiella pneumoniae [29] = assay: Bactericidal activity against Klebsiella pneumoniae ATCC BAA 1705 assessed as decrease in bacterial growth at MIC measured after 18 hrs by Time kill assay; assay type: functional, organism-based
Pseudomonas aeruginosa [30] = assay: Antibacterial activity against Pseudomonas aeruginosa ATCC 27883 assessed as vancomycin MIC incubated for 24 hrs by microbroth dilution assay; assay type: functional
Klebsiella pneumoniae [31] = assay: Antibacterial activity against Klebsiella pneumoniae ATCC 13883 assessed as reduction in microbial growth incubated for 24 hrs by microbroth dilution method; assay type: functional
Escherichia coli [32] = assay: Synergistic antibacterial activity against Escherichia coli ATCC 25922 assessed as fractional inhibitory concentration index incubated for 24 hrs in presence of polymyxin B by checkerboard assay; assay type: functional
Staphylococcus aureus [33] = assay: Synergistic antibacterial activity against methicillin resistant Staphylococcus aureus ATCC BAA -1556 assessed as fractional inhibitory concentration index incubated for 24 hrs in presence of daptomycin by checkerboard assay; assay type: functional
Pseudomonas aeruginosa [34] = assay: Synergistic antibacterial activity against Pseudomonas aeruginosa ATCC 27883 assessed as fractional inhibitory concentration index incubated for 24 hrs in presence of tetracycline by checkerboard assay; assay type: functional
Pseudomonas aeruginosa [35] = assay: Bactericidal activity against Pseudomonas aeruginosa ATCC BAA 1744 assessed as reduction in bacterial growth at MIC measured after 4 hrs by Time kill assay; assay type: functional, organism-based
Escherichia coli [36] = assay: Synergistic antibacterial activity against Escherichia coli ATCC 25922 assessed as fractional inhibitory concentration index incubated for 24 hrs in presence of kanamycin by checkerboard assay; assay type: functional
[37] = Cytotoxicity against HEK293 cells assessed as effect on cell viability at 10 to 25 ug/ml incubated for 24 hrs by microplate reader analysis relative to control; assay type: toxicity, cell-based; settings: human, at 10 to 25 µg/mL, dose 10-25 µg/ml, read-out: Activity

In the case of `N=C(N)NCCC[C@@H]1NC(=O)[C@H](CCCNC(=N)N)NC(=O)[C@H](CCCNC(=N)N)NC(=O)[C@H](CCCNC(=N)N)NC(=O)[C@H](Cc2c[nH]c3ccccc23)NC(=O)[C@H](Cc2c[nH]c3ccccc23)NC(=O)[C@H](Cc2c[nH]c3ccccc23)NC(=O)[C@H](Cc2c[nH]c3ccccc23)NC(=O)[C@H](CCCCN)NC(=O)[C@H](CCCNC(=N)N)NC1=O` (cyclo(KWWWWRRRRR)), the MIC (Pseudomonas aeruginosa [1]) is reported as 4 mg/L, the MIC (Klebsiella pneumoniae [2]) is reported as 0.063 mg/L and the MIC (Escherichia coli [3]) is reported as 2 mg/L. The Activity (Staphylococcus aureus [4]) was “Active”, the MIC (Klebsiella pneumoniae [5]) was 32 mg/L and the Activity (Escherichia coli [6]) was “Active”. For the same compound, the “fractional inhibitory concentration index (FICI)” value (Pseudomonas aeruginosa [7]) was 0.156, the Activity (Cell membrane) was 81.3% and the “fractional inhibitory concentration index (FICI)” value (Klebsiella pneumoniae [8]) was 0.3125. For the same compound, the Activity (Klebsiella pneumoniae [9]) was “Active”, the Activity (HepaRG) was “Non-Toxic” and the “fractional inhibitory concentration index (FICI)” value (Escherichia coli [10]) was 0.5625. For the same compound, the “fractional inhibitory concentration index (FICI)” value (Escherichia coli [11]) was 0.625, the Activity (Escherichia coli [12]) was “Active” and the HC50 at 2 h [13] was 320 µg/mL. For the same compound, the “fractional inhibitory concentration index (FICI)” value (Staphylococcus aureus [14]) was 0.5, the “fractional inhibitory concentration index (FICI)” value (Klebsiella pneumoniae [15]) was 0.5625 and the “fractional inhibitory concentration index (FICI)” value (Klebsiella pneumoniae [16]) was 0.375. The MIC (Escherichia coli [17]) was 8 mg/L, the MIC (Pseudomonas aeruginosa [18]) was 0.125 mg/L and the “fractional inhibitory concentration index (FICI)” value (Staphylococcus aureus [19]) was 0.5. The “fractional inhibitory concentration index (FICI)” value (Klebsiella pneumoniae [20]) was 0.257, the MIC (Pseudomonas aeruginosa [21]) was 0.125 mg/L and the “fractional inhibitory concentration index (FICI)” value (Pseudomonas aeruginosa [22]) was 0.531. The “fractional inhibitory concentration index (FICI)” value (Klebsiella pneumoniae [23]) was 0.625, the MIC (Escherichia coli [24]) was 16 mg/L and the “fractional inhibitory concentration index (FICI)” value (Staphylococcus aureus [25]) was 0.498. For the same compound, the “fractional inhibitory concentration index (FICI)” value (Escherichia coli [26]) was 0.375, the “fractional inhibitory concentration index (FICI)” value (Escherichia coli [27]) was 0.5 and the MIC (Escherichia coli [28]) was 8 mg/L. For the same compound, the Activity (Klebsiella pneumoniae [29]) was “Active”, the MIC (Pseudomonas aeruginosa [30]) was 8 mg/L and the MIC (Klebsiella pneumoniae [31]) was 16 mg/L. For the same compound, the “fractional inhibitory concentration index (FICI)” value (Escherichia coli [32]) was 0.3125, the “fractional inhibitory concentration index (FICI)” value (Staphylococcus aureus [33]) was 0.5 and the “fractional inhibitory concentration index (FICI)” value (Pseudomonas aeruginosa [34]) was 0.375. For the same compound, the Activity (Pseudomonas aeruginosa [35]) was “Active”, the “fractional inhibitory concentration index (FICI)” value (Escherichia coli [36]) was 0.375 and the viability at 24 h [37] was 86%.
